Assay results taken from DBAASP.
In brackets after ≈: the same amount, converted by molar mass. Several values for one entry are separate records, joined by “and”; a condition that tells them apart may be missing. Equal entries are not always repeated. Each block holds one compound with its values, some of them ahead of it.

Columns and labels:
Assay in all cases: ≥ marks a high value that may be exact or a test limit, other limits are often not marked, values filed in µg/mL are converted to µM
[1] = system: Sphingobacterium siyangense
[2] = system: Candida albicans ATCC 2002
[3] = system: Staphylococcus epidermidis ATCC 12228
[4] = system: Staphylococcus aureus 08031002
Enterococcus faecium = system: Enterococcus faecium
Escherichia coli Ec513 = system: Escherichia coli Ec513
Serratia marcescens MA = system: Serratia marcescens MA
[5] = system: Staphylococcus aureus ATCC 2592
Bacillus subtilis = system: Bacillus subtilis
[6] = system: Pseudomonas aeruginosa ATCC 27853
[7] = system: Saccharibacillus kuerlensis
Aspergillus nidulans = system: Aspergillus nidulans
[8] = system: Staphylococcus aureus 08032712
Escherichia coli O78 = system: Escherichia coli O78
[9] = system: Aspergillus terreus GIM 3.34
Bacillus cereus = system: Bacillus cereus
[10] = system: Acinetobacter calcoaceticus
[11] = system: Pseudomonas aeruginosa Pa4216
[12] = system: Staphylococcus aureus 08A865
Escherichia coli K-12 = system: Escherichia coli K-12
Pseudomonas luteola = system: Pseudomonas luteola
Chaetomium globosum = system: Chaetomium globosum
[13] = system: Salmonella typhimurium CMCC 50013
[14] = system: Staphylococcus aureus 08032706
[15] = system: Staphylococcus aureus Sa1390
[16] = system: Staphylococcus aureus 08031013
Bacillus pumilus = system: Bacillus pumilus
[17] = system: Salmonella enterica subsp. enterica serovar Choleraesuis CMCC 50020
[18] = system: Staphylococcus aureus 08032810
[19] = system: Acinetobacter baumannii Ab5755
Pseudomonas aeruginosa = system: Pseudomonas aeruginosa
[20] = system: Staphylococcus aureus ATCC 25923
[21] = system: Salmonella enterica subsp. enterica serovar Enteritidis CMCC 50041
Escherichia coli = system: Escherichia coli
[22] = system: Pseudomonas aeruginosa Pa1409
[23] = system: Escherichia coli ATCC 25922
[24] = system: Salmonella enterica subsp. enterica serovar Typhi
Serratia marcescens SA = system: Serratia marcescens SA
[25] = system: Acinetobacter baumannii Ab5753
[26] = system: Acinetobacter baumannii Ab1408
[27] = system: Staphylococcus aureus 08A875
Escherichia coli K88 = system: Escherichia coli K88
[28] = system: Staphylococcus aureus ATCC 33591
[29] = system: Staphylococcus aureus 930918-3
Escherichia coli 55B5 = system: Escherichia coli 55B5
Staphylococcus aureus = system: Staphylococcus aureus
Escherichia coli UB1005 = system: Escherichia coli UB1005
Salmonella typhimurium = system: Salmonella typhimurium
[30] = system: Rhodococcus rhodochrous X15
[31] = system: Enterococcus faecalis 981
[32] = system: Bacillus licheniformis X39
Serratia rubidaea X01 = system: Serratia rubidaea X01
[33] = system: Psychrobacter faecalis X29
[34] = system: Staphylococcus carnosus KHS

SMILES: CC[C@H](C)[C@H](NC(=O)[C@@H](NC(=O)[C@H](CCCN=C(N)N)NC(=O)[C@@H]1CCCN1C(=O)[C@H](CCCCN)NC(=O)[C@H](CCCCN)NC(=O)[C@H](Cc1ccccc1)NC(=O)[C@H](Cc1ccccc1)NC(=O)[C@H](CCC(=O)O)NC(=O)[C@H](CCCCN)NC(=O)[C@H](C)NC(=O)[C@H](CCCN=C(N)N)NC(=O)[C@H](CCCCN)NC(=O)[C@H](CCCCN)NC(=O)[C@@H](NC(=O)[C@H](CO)NC(=O)[C@H](CCCCN)NC(=O)[C@H](CCCCN)NC(=O)[C@H](CC(C)C)NC(=O)[C@H](CCCCN)NC(=O)[C@H](CCCN=C(N)N)NC(=O)[C@H](Cc1ccccc1)NC(=O)[C@H](Cc1ccccc1)NC(=O)[C@@H](N)CCCCN)C(C)C)C(C)C)C(=O)NCC(=O)N[C@H](C(=O)N[C@@H](CO)C(=O)N[C@H](C(=O)N1CCC[C@H]1C(=O)N[C@@H](Cc1ccccc1)C(=O)O)[C@@H](C)CC)C(C)C [KFFRKLKKSVKKRAKEFFKKPRVIGVSIPF]
MIC [1]: 2.58 µM (≈ 9.4 µg/mL)
MIC [2]: 1.29 µM and 0.66 µM
MIC [3]: 2.2 µM (≈ 8 µg/mL)
MIC [4]: 27.5 µM (≈ 100 µg/mL)
MIC (Enterococcus faecium): ≥ 41.2 µM
MIC (Escherichia coli Ec513): 2.2 µM (≈ 8 µg/mL)
MIC (Serratia marcescens MA): ≥ 110 µM
MIC [5]: 1.29 µM and 0.66 µM
MIC (Bacillus subtilis): 2.58 µM (≈ 9.4 µg/mL)
MIC [6]: 0.33 µM and > 0.165 µM
MIC [7]: 1.29 µM (≈ 4.7 µg/mL)
MIC (Aspergillus nidulans): 5.14 µM (≈ 18.7 µg/mL)
MIC [8]: 27.5 µM (≈ 100 µg/mL)
MIC (Escherichia coli O78): 4.4 µM (≈ 16 µg/mL)
MIC [9]: 5.14 µM (≈ 18.7 µg/mL)
MIC (Bacillus cereus): 0.33 µM (≈ 1.2 µg/mL)
MIC [10]: 0.632 µM (≈ 2.3 µg/mL)
MIC [11]: 1.1 µM (≈ 4 µg/mL)
MIC [12]: ≥ 110 µM
MIC (Escherichia coli K-12): 0.275 µM (≈ 1 µg/mL)
MIC (Pseudomonas luteola): 0.33 µM (≈ 1.2 µg/mL)
MIC (Chaetomium globosum): 10.3 µM (≈ 37.5 µg/mL)
MIC [13]: 1.1 µM (≈ 4 µg/mL)
MIC [14]: 27.5 µM (≈ 100 µg/mL)
MIC [15]: ≥ 35.2 µM
MIC [16]: 27.5 µM (≈ 100 µg/mL)
MIC (Bacillus pumilus): 2.58 µM (≈ 9.4 µg/mL)
MIC [17]: 0.55 µM (≈ 2 µg/mL)
MIC [18]: 27.5 µM (≈ 100 µg/mL)
MIC [19]: 1.1 µM (≈ 4 µg/mL)
MIC (Pseudomonas aeruginosa): 3.64 µM (≈ 13.3 µg/mL)
MIC [20]: 1.1 µM (≈ 4 µg/mL)
MIC [21]: 1.1 µM (≈ 4 µg/mL)
MIC (Escherichia coli): 0.323 µM (≈ 1.17 µg/mL)
MIC [22]: 2.2 µM (≈ 8 µg/mL)
MIC [23]: 0.632 µM (≈ 2.3 µg/mL)
MIC [24]: 0.33 µM (≈ 1.2 µg/mL)
MIC (Serratia marcescens SA): ≥ 110 µM
MIC [25]: 4.4 µM (≈ 16 µg/mL)
MIC [26]: 4.4 µM (≈ 16 µg/mL)
MIC [27]: 20.6 µM (≈ 75 µg/mL)
MIC (Escherichia coli K88): 1.1 µM (≈ 4 µg/mL)

MIC [28]: ≥ 130 µM
MIC [29]: 0.95 µM and 1.17 µM
SMILES: CC[C@H](C)[C@H](NC(=O)[C@H](CCCCN)NC(=O)[C@H](CCCCN)NC(=O)[C@H](CC(C)C)NC(=O)[C@H](CCCCN)NC(=O)[C@H](CCC(=O)O)NC(=O)[C@H](CCCCN)NC(=O)[C@@H](NC(=O)[C@H](CCCCN)NC(=O)[C@H](CC(N)=O)NC(=O)[C@H](CCCN=C(N)N)NC(=O)[C@H](Cc1ccccc1)NC(=O)[C@H](CCCCN)NC(=O)[C@@H](N)CCCN=C(N)N)[C@@H](C)CC)C(=O)NCC(=O)O [RKFRNKIKEKLKKIG]

MIC (Escherichia coli 55B5): 1.8 µM (≈ 4.47 µg/mL)
MIC (Staphylococcus aureus): 55 µM (≈ 136 µg/mL)
MIC (Pseudomonas aeruginosa): 3 µM (≈ 7.44 µg/mL)
MIC (Escherichia coli UB1005): 2.1 µM (≈ 5.21 µg/mL)
MIC (Salmonella typhimurium): 4.8 µM (≈ 11.9 µg/mL)
SMILES: CC[C@H](C)[C@H](NC(=O)[C@H](C)N)C(=O)N[C@@H](Cc1cnc[nH]1)C(=O)N[C@@H](CC(N)=O)C(=O)N[C@@H](CC(C)C)C(=O)N[C@@H](C)C(=O)N[C@@H](Cc1cnc[nH]1)C(=O)N[C@@H](CCCCN)C(=O)N[C@@H](CC(C)C)C(=O)N[C@@H](CC(C)C)C(=O)N[C@@H](CCCCN)C(=O)N[C@@H](CCCCN)C(=O)N[C@@H](CC(C)C)C(=O)N[C@H](C(=O)N[C@@H](CCCN=C(N)N)C(=O)N[C@@H](C)C(=O)N[C@H](C(=O)N[C@@H](CCCCN)C(=O)N[C@@H](CCCCN)C(=O)N[C@@H](CC(C)C)C(=O)N[C@@H](C)C(=O)N[C@@H](CC(N)=O)C(=O)O)C(C)C)[C@@H](C)O [AIHNLAHKLLKKLTRAVKKLAN]

MIC [30]: 2.3 µM (≈ 5.99 µg/mL)
MIC [31]: ≥ 75 µM
MIC [32]: 9 µM (≈ 23.4 µg/mL)
MIC (Serratia rubidaea X01): 9 µM (≈ 23.4 µg/mL)
MIC [20]: 19 µM (≈ 49.5 µg/mL)
MIC [23]: 150 µM (≈ 391 µg/mL)
MIC [33]: 4.5 µM (≈ 11.7 µg/mL)
MIC [34]: 19 µM (≈ 49.5 µg/mL)
SMILES: CC[C@H](C)[C@H](NC(=O)[C@H](CC(C)C)NC(=O)[C@@H](NC(=O)[C@@H]1CCCN1C(=O)[C@@H](NC(=O)[C@@H](NC(=O)[C@H](CC(N)=O)NC(=O)[C@H](CO)NC(=O)[C@H](C)NC(=O)[C@@H](NC(=O)[C@H](CC(N)=O)NC(=O)[C@H](CC(C)C)NC(=O)[C@H](CC(C)C)NC(=O)[C@@H](NC(=O)[C@H](CO)NC(=O)[C@H](CC(C)C)NC(=O)[C@@H](N)Cc1ccccc1)[C@@H](C)O)C(C)C)C(C)C)C(C)C)[C@@H](C)O)C(=O)N[C@H]1CSSC[C@@H](C(=O)O)NC(=O)[C@H](CCCCN)NC(=O)[C@H](CCCCN)NC(=O)[C@H]([C@@H](C)O)NC(=O)[C@H]([C@@H](C)CC)NC(=O)[C@H](CCCCN)NC1=O [FLSTLLNVASNVVPTLICKITKKC]
